Measurements as given in patent publication US9556235B2, “F11 receptor (F11R) antagonists as therapeutic agents” (The Research Foundation for The State University of New York, priority 2003, dated 2017).
“Also recorded” adds a separate entry of the source.

Experiments:
[1] = tested on: human platelets; test: Potentiation by M.Ab.F11 of ADP-induced platelet aggregation (sub-threshold M.Ab.F11 plus ADP); type: cell-based; conditions: for inhibition of M.Ab.F11 plus ADP-induced platelet aggregation: M.Ab.F11 0.3 μg/ml, ADP 0.5 μM
Protocol: (§1) Whole blood was collected into the anticoagulant ACD (pH 4.6), as detailed (Kornecki et al. (1990) J. Biol. Chem., 265:10042-10048, incorporated herein by reference). Platelets were washed and isolated by differential centrifugation, and resuspended in a Tyrode-albumin (0.35%) solution buffered with 11.9 mM sodium bicarbonate (pH 7.35) in the presence of apyrase, heparin, and PGE1 (Id.). […] Platelet aggregation was measured in a Chronolog Whole Blood Lumi-Aggregometer (Chronolog Corp. Havertown, Pa.). […] The lowest concentration of each agonist which caused platelet aggregation was determined in these experiments for each donor on the day of blood collection.
Synthetic peptides according to published sequences of F11R were prepared.

[2] = tested on: human platelets; test: Potentiation by M.Ab.F11 of collagen-induced platelet aggregation; type: cell-based
Protocol: as §1
However, the addition of sub-threshold amounts of collagen and M.Ab.F11 triggered a full-blown platelet aggregation.

[3] = tested on: platelets; test: Platelet adhesion to immobilized M.Ab.F11 (BCA protein assay); type: cell-based, human; conditions: for inhibition in platelet adhesion assay (immobilized M.Ab.F11): FIG. 3 legend, concentration not given; for inhibition of the adhesion of platelets to immobilized M.Ab.F11: M.Ab.F11 150 ng/well
Protocol: An adhesion assay, based on the determination of cell-derived protein using Bicinchoninic Acid (BCA) protein assay (Tuszynski et al. (1990) Anal. Biochem 184:189-191, incorporated herein by reference), was used for platelet adhesion to immobilized M.Ab.F11. Wells of a 96-well plate (Nunc-Immuno™ Plate, MaxiSorp™ Surface, flat bottomed) were incubated overnight at 4° C. with […] of a 1 mg/ml solution of M.Ab.F11. Wells were aspirated, washed, treated with TBS/1% BSA for 1 h at 37° C., and washed with TBS/0.1 mM MnCl2/0.1 mM CaCl2. Isolated platelet suspensions (100 μl) (3×10^8/ml) were added and plates were incubated at 37° C. for 90 min. Total platelet-associated protein was determined by dissolving the attached platelets directly with 100 μl BCA. Platelets were incubated at 37° C. for 2 h, and absorbance (595 nm) determined (Dynatech Laboratories, Chantilly, Va.).
The five peptides with sequences shown in Table 1 were tested also for their effects on the adhesion of platelets to immobilized M.Ab.F11 (applied at a concentration of 150 ng/well). […] Peptide 1 (SEQ ID NO: 1), added at 50 μM caused about 60% inhibition of the adhesion of platelets to immobilized M.Ab.F11, and with 500 μM of peptide 1 (SEQ ID NO: 1), about 70% inhibition was observed. Peptide 4 (SEQ ID NO: 4), at 50 μM, produced very little (10%) inhibition compared to peptide 1 (SEQ ID NO: 1) at similar concentrations. However, 500 μM of peptide 4 (SEQ ID NO: 4) produced approximately 70% inhibition in the adhesion of platelets to M.Ab.F11, similar to that observed with peptide 1 (SEQ ID NO: 1) at the same concentration.

[4] = tested on: apoE KO mice; test: Plaque formation in animal model of atherosclerosis (apoE KO mice); type: in vivo; conditions: for physical appearance of the animals (secondary consequences of atherosclerosis): 5 month period, Western-type diet, FIG. 7
Protocol: The results of an in-vivo study of the effects of F11R peptide 4D on plaque formation in an animal model of atherosclerosis (apoE knockout/KO mice) are discussed below. The atherosclerosis-prone apoE KO is a strain of mice that has been genetically engineered to develop cardiovascular disease. This genetic abnormality is manifested by the continuous development of atherosclerotic plaques from early age to adulthood, accompanied by deteriorating, sickly appearance.
The study was conducted on atherosclerosis prone apoE deficient (knock-out female mice of 6 weeks of age) of a C57BL/6 background. The mice were obtained from the Jackson Laboratory (Bar Harbor, Me.). Seven animals were injected daily with peptide 4D. In parallel, control groups, consisting of animals injected with water, the vehicle used to deliver peptide 4D, was maintained. All mice were fed a Western-type diet.
At pre-determined intervals of 3, 4 and 5 months of treatment, the aortae were dissected. Following the dissection of the aortae of all mice, morphometric analyses of lesion areas was performed on aortic arch sections stained with Harris hematoxylin-eosin. The total intimal lesion areas were quantified by taking the average of 6 sections spaced 30 μm apart, beginning at the base of the aortic root of each animal. Images were viewed and captured with a microscope (Nikon) equipped with a color video camera (Motic Images Plus 2.0) attached to a computerized imaging system with Image-J.
En face assays (to visualize the entire aorta) were conducted for comparison of the size and number of atherosclerotic plaques in treated and untreated animals using an Oil red O staining procedure, as shown in FIG. 9. […] FIG. 9B illustrates the differences in the number and size of plaques in animals following a 4-month period of injection with peptide 4D, comparing animals “P4, P5” treated with peptide 4D versus controls “H3, H4, H5”.
The proximal aortae of treated an untreated groups were also assessed by hematoxylin-eosin staining of the proximal aorta (root assay) for the size of the lesions/plaques and the necrotic core area within the proximal aorta. FIG. 10A illustrates the plaques and the size of the necrotic core area of animals treated or not treated with peptide 4D for a 3 month period.

[5] = tested on: human platelets; test: M.Ab.F11-induced platelet aggregation; type: cell-based; conditions: sF11R 1 μg/ml; M.Ab.F11 2.45 μg/ml; FIG. 1A
Protocol: as §1
The soluble polypeptide sF11R was tested in the platelet aggregation assay to determine its effect on the rate and extent of platelet aggregation.
The F11R/JAM-A receptor is constitutively expressed on the surface membrane of human platelets. Studies were carried out testing the effects of Fab fragments prepared from M.Ab.F11, i.e., on the M.Ab.F11-induced platelet aggregation that is triggered by M.Ab.F11 binding to F11R. It was determined that these Fab fragments interfered with the ability of the intact M.Ab.F11 antibody to activate platelets through the constitutively-expressed F11R.
As shown below, platelet aggregation was assayed in the presence of either 0.1 μg/ml (FIG. 4a), or 1.0 μg/ml (FIG. 4b). […]

[6] = collagen 0.5 μg/ml (sub-threshold), peptide concentration not given
[7] = peptide approximately 50-500 μM

Question: KSVTREDTGTYTC [peptide 4] was tested. Which “inhibition of M.Ab.F11 plus ADP-induced platelet aggregation” value ([1]; peptide approximately 50 μM) did it give?
Answer: completely block

Question: And the “inhibition of M.Ab.F11 plus ADP-induced platelet aggregation” value ([1]; peptide approximately 50 μM, listed as Peptide 4)?
Answer: completely inhibited aggregation

Question: What about the “block of potentiation by M.Ab.F11 of collagen-induced platelet aggregation” value (“block … of collagen-induced platelet aggregation” for short) [2, 6] of the same molecule?
Answer: completely blocked

Question: And the “inhibition in platelet adhesion assay (immobilized M.Ab.F11)” value [3]?
Answer: inhibition

Question: What about the “inhibition of the adhesion of platelets to immobilized M.Ab.F11” value (shortened to “inhibition of the adhesion of platelets”) ([3]; peptide 50 μM) of the same molecule?
Answer: 10%

Question: And the “inhibition of the adhesion of platelets” value ([3]; peptide 500 μM)?
Answer: about 70%

Question: What does the source list for “SYEDRVTFLPTGITFKSVTRED [peptide 2, F11R amino acids 55-76, control peptide]”?
Answer: inhibition of M.Ab.F11 plus ADP-induced platelet aggregation [1, 7]: no inhibitory effects; inhibition of M.Ab.F11 plus ADP-induced platelet aggregation ([1]; peptide approximately 50-500 μM, listed as SEQ ID NO: 2): do not inhibit aggregation; inhibition of the adhesion of platelets to immobilized M.Ab.F11 ([3]; peptide 500 μM): did not cause significant inhibition

Question: “WKFDQGDTTRLVEYNNKITASY [peptide 3, F11R amino acids 35-56, control peptide]” was tested. Which “inhibition of M.Ab.F11 plus ADP-induced platelet aggregation” value [1, 7] did it give?
Answer: no inhibitory effects

Question: What about the “inhibition of M.Ab.F11 plus ADP-induced platelet aggregation” value ([1]; peptide approximately 50-500 μM, listed as SEQ ID NO: 3) of the same molecule?
Answer: do not inhibit aggregation

Question: And the “block … of collagen-induced platelet aggregation” value [2, 6]?
Answer: did not inhibit platelet aggregation

Question: And the “inhibition of the adhesion of platelets” value ([3]; peptide 500 μM)?
Answer: did not cause significant inhibition

Question: Which “inhibition of M.Ab.F11 plus ADP-induced platelet aggregation” value ([1]; peptide approximately 50 μM) does the source give for “SVTVHSSEPEVRIPENNPVKLSC [peptide 1, N-terminal peptide of F11R, amino acids 1-23]” here?
Answer: completely inhibited

Question: And the “inhibition of M.Ab.F11 plus ADP-induced platelet aggregation” value ([1]; peptide approximately 50 μM, listed as Peptide 1)?
Answer: completely inhibited platelet aggregation

Question: And the “persistence of inhibition of M.Ab.F11 plus ADP-induced platelet aggregation” value ([1]; peptide approximately 50 μM, examined after a 12 h period)?
Answer: aggregation did not ensue

Question: And the “block … of collagen-induced platelet aggregation” value [2, 6]?
Answer: completely blocked

Question: What about the “inhibition in platelet adhesion assay (immobilized M.Ab.F11)” value [3] of the same molecule?
Answer: inhibition

Question: And the “inhibition of the adhesion of platelets” value ([3]; peptide 50 μM)?
Answer: about 60%

Question: What about the “inhibition of the adhesion of platelets” value ([3]; peptide 500 μM) of the same molecule?
Answer: about 70%

Question: dKSVTdREDTGTYTC-CONH2 [peptide 4D] was tested. Which “size of the atherosclerotic plaques, en face assay (entire aorta, Oil red O)” value ([4]; 3, 4 and 5 month period of injection, FIG. 9D) did it give?
Answer: decrease in the size of the atherosclerotic plaques

Question: What about the “size of the plaque/lesion areas, proximal aorta” value ([4]; 3, 4 and 5 months of injections) of the same molecule?
Answer: significant decreases

Question: And the “size of the necrosis core area (NE) within the lesion” value ([4]; 3 month period of injection, FIG. 10C)?
Answer: significant decrease

Question: What about the “physical appearance of the animals (secondary consequences of atherosclerosis)” value ([4]; apoE KO mice, daily injection) of the same molecule?
Answer: prevented the degeneration of the animal's appearance

Question: What about the “physical appearance of the animals (secondary consequences of atherosclerosis)” value ([4]; apoE KO mice, daily injection, listed as F11R peptide 4D) of the same molecule?
Answer: diminishes the secondary consequences

Question: And the “loss of hair, itching/scratching and lesions on the skin” value ([4]; apoE KO mice, daily injection, FIG. 7C-F)?
Answer: not observed

Question: And the “rate and extent of atherosclerotic plaque formation in major arterial blood vessels” value ([4]; apoE KO mice, summary of FIGS. 8-10)?
Answer: significantly decreases

Question: And the “size of atherosclerotic plaques in the aortic arch” value ([4]; three, four and five months of injection, hematoxylin-eosin sections, FIG. 8)?
Answer: beneficial effects

Question: And the “size of the lesion area, proximal aorta (root assay)” value ([4]; treated for 3 months, *P<0.05, FIG. 10B)?
Answer: significant decrease

Question: For “EQDGSPPSEYTWFKD [peptide 5, F11R amino acids 128-142, control peptide]”, which “inhibition of M.Ab.F11 plus ADP-induced platelet aggregation” value [1, 7] is on record?
Answer: no inhibitory effects

Question: And the “inhibition of M.Ab.F11 plus ADP-induced platelet aggregation” value ([1]; peptide approximately 50-500 μM, listed as SEQ ID NO: 5)?
Answer: do not inhibit aggregation

Question: What about the “block … of collagen-induced platelet aggregation” value [2, 6] of the same molecule?
Answer: did not inhibit platelet aggregation

Question: What about the “inhibition of the adhesion of platelets” value ([3]; peptide 500 μM) of the same molecule?
Answer: did not cause significant inhibition

B1: sF11R: secreted recombinant F11R, extracellular portion (amino acids ser-1 to asn-208), His tag, from COS-7 cells (protein)
chain: SVTVHSSEPEVRIPENNPVKLSCAYSGFSSPRVEWKFDQGDTTRLVCYNNKITASYEDRVTFLPTGITFKSVTREDTGTYTCMVSEEGGNSYGEVKVKLIVLVPPSKPTVNIPSSATIGNRAVLTCSEQDGSPPSEYTWFKDGIVMPTNPKSTRAFSNSSYVLNPTTGELVFDPLSASDTGEYSCEARNGYGTPMTSNAVRMEAVERN
modifications: left off: small tags and cut ends
notes: secreted recombinant F11R, extracellular portion (amino acids ser-1 to asn-208), His tag, from COS-7 cells
Question: With B1 as the molecule, how does the “inhibition of M.Ab.F11-induced platelet aggregation” value [5] read?
Answer: effectively inhibited; also recorded: Inhibition

Question: What about the “block of potentiation by M.Ab.F11 of ADP-induced platelet aggregation” value ([1]; sF11R 1 μg/ml) of the same molecule?
Answer: completely blocked

Question: What about the “block … of collagen-induced platelet aggregation” value ([2]; sF11R 1 μg/ml) of the same molecule?
Answer: completely blocked
